From article PMC13492380, “Dissecting Structural and Functional Determinants of Microtubules Stabilization through Guided Chemical Modulation” (Journal of Medicinal Chemistry, 2026)
Where two headings read alike, the source gives them in different places.

How the values were obtained:
[1] = system: human Kif5B 1–905-EGFP on stabilized MTs; experiment: Single-molecule kinesin-1 motility assay on stabilized MTs (TIRF); type: biochemical
Description: To gain mechanistic insight into the kinesin phenotype observed in cells, we reduced system complexity using an in vitro reconstitution assay. Specifically, we performed time-lapse imaging using total internal reflection fluorescence (TIRF) microscopy with immobilized and stabilized MTs in a flow chamber, into which we introduced 1.08 nM kinesin-1 motors (constitutively active human Kif5B 1–905-EGFP). We then analyzed individual kinesin movements to quantify landing rates (number of motors per unit MT length per unit time), run lengths, interaction times, and average velocities (Figure D, Movies S12–S15). In contrast to our experiments in cells, here we evaluated each structural modification individually to dissect the effects of MT lattice parameters on kinesin-1 mediated transport.
Total Internal Reflection Fluorescence microscopy experiments were performed on an inverted widefield microscope Nikon-Ti2 E, equipped with a motorized XY-stage, a perfect focus system, Apo TIRF 60× oil NA 1.49 objective and PRIME BSY (Teledyne Photometrics) camera. MTs were visualized using Interference Reflection microscopy (IRM) and fluorescently labeled proteins were visualized sequentially by switching between microscope filter cubes for GFP and mCherry channels. The microscopes were controlled using NIS Elements software (Nikon). All experiments were conducted at RT.
Microscopy chambers were prepared from two sandwiched silanized glass coverslips (22 × 22 mm^2 and 18 × 18 mm^2) attached through parafilm strips (heated for 15–20 s at 60 °C and gently pressed together) to form ∼2.5 mm wide parallel flow channels. Prior to the chamber assembly, the coverslips were washed in 3 M KOH, cleaned using Zepto plasma cleaner (Diener electronic) and silanized with hexamethyldisilazane. Flow channels were first incubated with 40 μgml^–1 antibiotin antibodies (Sigma, B3640) in PBS for 10 min, followed by incubation with 1% Pluronic F127 (Sigma-Aldrich, P2443) in PBS for at least 1 h. F127 was washed with BRB80 (80 mM PIPES, 1 mM EGTA, 1 mM MgCl2, pH 6.9).
Porcine brain tubulin was isolated using the high-molarity PIPES procedure then mixed with Biotin labeled tubulin (Cytoskeleton Inc., T333P) in 1:49 ratio. All MTs were polymerized using 2% biotin-labeled tubulin. […] Polymerized MTs were centrifuged for 30 min at 18,000g in a Microfuge 18 Centrifuge (Beckman Coulter’s). […] Drug stabilized preassembly MTs (polymerized in the presence of drugs and GTP, stored and imaged in presence of drug) were polymerized from 4 mg mL^–1 biotinylated tubulin for 30 min at 37 °C in BRB80 supplemented with 4 mM MgCl2, 40 μM drug of interest in 5% DMSO, and 1 mM GTP. Polymerized MTs were centrifuged for 30 min at 18,000g in a Microfuge 18 Centrifuge (Beckman Coulter’s). […] GMPCPP stabilized MTs (GMPCPP polymerized) were assembled from 4 mg mL^–1 biotinylated tubulin for 2 h at 37 °C in BRB80 supplemented with 1 mM MgCl2 and 1 mM GMPCPP (Jena Bioscience, NU-405). Polymerized MTs were centrifuged for 30 min at 18,000g in a Microfuge 18 Centrifuge (Beckman Coulter’s) and pellets were resuspended and kept in BRB80.
Stabilized MTs were flushed into the channel and incubated for 15–30 s to allow for surface attachment. Unbound MTs were removed by washing with BRB80 supplemented with 10 μM of drug. Prior the experiment, the solution was exchanged by motility buffer, MB (BRB80 containing 10 mM DTT, 20 mM D-glucose, 0.1% Tween-20, 0.5 mg/mL casein, 1 mM Mg-ATP, 0.02 mg/mL catalase, 0.22 mg/mL glucose oxidase, 10 μM drug). Subsequently, a solution containing either 1.08 nM Kif5b-EGFP or 10/40 nM mCherry-Tau in MB was introduced into the chamber.
To assess kinesin-EGFP motility along MTs, an IRM image (50 ms exposure) was acquired followed by a 1 min video using 488 nm laser excitation (20% laser intensity, 300 ms exposure) with no delay. Two to three videos were recorded from different fields within the same channel and at least 2 channels were measure for each experimental condition. […]

A549 cells = experiment: Indirect immunofluorescence of the microtubular network; type: cell-based, human; settings: 24 h
Excerpt: We first assessed their impact on the cellular microtubular network. […] These defects manifested as multinucleated cells resulting from multiple abnormal star-like spindles, leading to an aberrant arrangement of chromosomes. […] We then evaluated their ability to overcome intrinsic resistance mechanisms using cell lines overexpressing βIII-tubulin isotype (HeLaβIII) or P-glycoprotein, PgP, (Kb-V1), compared to parental HeLa and Kb-3.1 cells.
2 Cellular and biochemical characterization of compounds 1a and 1b. (A) Effects of compounds on A549 cells. […] Top row panels are control cells treated with 0.5% DMSO (vehicle), with the usual and evenly distributed microtubular network in interphase and normal bipolar spindle with chromosomes aligned at the metaphase plate during mitosis. […] All images are shown at the same magnification; scale bar 10 μm. […] (C) Van’t Hoff Plot of the equilibrium binding constants of compounds 1a and 1b at the assayed temperatures. Error bars represent the standard error of the measurement.
DMSO was always less than 0.5% v/v. PEG and Triton X-100 were applied to cells prior the fixation with 3.7% formaldehyde, as previously described. Cells were incubated with a DM1A mouse monoclonal antibody (Sigma-Aldrich) reacting with α-tubulin. […] Images were recorded using a Leica DFC360 FX CCD camera.

[2] = system: taxane site of assembled cross-linked MTs; settings: cited from earlier work
[3] = equilibrium constants from anisotropy measurements, ref footnote c 'As in ref .' (number not given)
[4] = ref footnote b 'As in ref .' (number not given)

## CC(=O)OC1C(=O)C2(C)C(OC(=O)CCCCC(=O)OC3CCc4ccccc43)CC3OCC3(OC(C)=O)C2C(OC(=O)c2ccccc2)C2(O)CC(OC(=O)C(O)C(NC(=O)c3ccccc3)c3ccccc3)C(C)=C1C2(C)C (centres unmarked) [1a, 7-O-(6″-O-(2‴,3‴-Dihydroinden-1‴-yl)hexanedioyl) Paclitaxel]
[1]; 1.08 nM Kif5b-EGFP, 10 μM drug
  kinesin-1 landing rate on stabilized MTs: increased on 1a compared with 1b
  kinesin-1 time bound on stabilized MTs: increased the time bound
  kinesin-1 velocity on stabilized MTs: decreased the velocity
A549 cells
  selected concentration showing equivalent effect on microtubular network and mitotic spindles: 2 µM

## COc1ccc2c(c1)CC(NC(=O)CCCCCCCC(=O)OC1CC3OCC3(OC(C)=O)C3C(OC(=O)c4ccccc4)C4(O)CC(OC(=O)C(O)C(NC(=O)c5ccccc5)c5ccccc5)C(C)=C(C(OC(C)=O)C(=O)C13C)C4(C)C)CC2 [1b, 7-O-((S)-9″-(7‴-Methoxy-1‴,2‴,3‴,4‴-tetrahydronaphthalen-2‴-yl)amino) −9″-oxononanoyl) Paclitaxel]
A549 cells
  selected concentration showing equivalent effect on microtubular network and mitotic spindles: 1 µM

## CC(=O)O[C@H]1C(=O)[C@]2(C)[C@@H](OC(=O)[C@H](C)NC(=O)c3ccc(-c4c5cc(F)c(=O)cc-5oc5cc(O)c(F)cc45)c(C(=O)O)c3)C[C@H]3OC[C@@]3(OC(C)=O)[C@H]2[C@H](OC(=O)c2ccccc2)[C@]2(O)C[C@H](OC(=O)[C@H](O)[C@@H](NC(=O)c3ccccc3)c3ccccc3)C(C)=C1C2(C)C [FTX2, Flutax2]
[2]; [3]
  K b 26 °C: (5.9 ± 0.3) × 10^7 M-1
  K b 35 °C: (2.2 ± 0.2) × 10^7 M-1
  K b 42 °C: (1.8 ± 0.2) × 10^7 M-1

## CC(=O)O[C@H]1C(=O)[C@@]2(C)[C@H]([C@H](OC(=O)c3ccccc3)[C@]3(O)C[C@H](OC(=O)[C@H](O)[C@@H](NC(=O)c4ccccc4)c4ccccc4)C(C)=C1C3(C)C)[C@]1(OC(C)=O)CO[C@@H]1C[C@@H]2O [PTX, Paclitaxel]
[1]; compared to native-like MTs
  kinesin-1 run length on stabilized MTs: reduce run length
[2]; [4]
  K b 26 °C: (2.64 ± 0.17) × 10^7 M-1
  K b 35 °C: (1.43 ± 0.17) × 10^7 M-1
  K b 42 °C: (0.94 ± 0.23) × 10^7 M-1
  ΔG 0 app at 26 °C: –41.7 ± 0.2 kJ mol^–1
  ΔS 0 app: –29.3 ± 13.1 J mol ^aK^–1
